# Laboratory results from US9133484B2, “Transfection agent” (3-D MATRIX, LTD., priority 2008, dated 2015).
# Columns and labels:
# MMP-2 mRNA = assay: RNA interference effect by RT-PCR (MMP-2 target, beta-actin internal standard); type: cell-based, human; conditions: siRNA 50 nM/peptide surfactant 20 μg/ml, 8 hours, U87MG, T98G, U251MG (FIGS. 4 to 6)
# Experimental: siRNA introduced into cells by peptide surfactant was confirmed to have RNA interference ability by RT-PCR.
# <Materials> • *Peptide surfactant • Sequence: Ac-AAAAAAK-NH2 (SEQ ID NO: 17) (Celtek) • *Cells • Three types of cultured human malignant glioma cells (U87MG, T98G, U251MG, acquired from ATCC)
# 1×10^5 cells were seeded into a 24-well plate and cultured overnight in accordance with the ATCC standard protocol. After removing the medium, the following solutions were added to the final concentrations indicated below followed by culturing for 8 hours under the same culturing conditions as previously described. • (1) Blank control (medium only) • (2) Random oligo siRNA (Dharmacon)/peptide surfactant 20 μg/ml • (3) siRNA 50 nM • (4) Peptide surfactant 20 μg/ml • (5) siRNA 50 nM/peptide surfactant 20 μg/ml
# […] was reverse-transcribed to cDNA using the Taqman Gene Expression Cell-to-Ct Kit (Applied Biosystems). Quantitative analysis was carried out using the Applied Biosystems 7500 Real-Time PCR System using MMP-2 for the target and beta-actin for the internal standard by Gene Expression Assay (Applied Biosystems).
# [1] = system: cultured human malignant glioma cells (U87MG, T98G, U251MG); assay: Introduction of Cy3-labeled siRNA into cells, fluorescence microscopy; type: cell-based; conditions: siRNA 50 nM plus peptide surfactant 20 μg/ml, 8 hours, all three types of cells
# Experimental: The introduction of siRNA into cells by peptide surfactant was confirmed by microscopic observation of fluorescent-labeled siRNA.
# (§1) <Materials> • *Peptide surfactant • Sequence: Ac-AAAAAAK-NH2 (SEQ ID NO: 17) (Celtek) • *siRNA • siRNA/MMP-2 (Santa Cruz) • *siRNA fluorescent labeling reagent • Label IT Cy-3 Labeling Kit (Mirus) • *Cells • Three types of cultured human malignant glioma cells (U87MG, T98G, U251MG, each acquired from ATCC)
# siRNA/MMP-2 was labeled with Cy3 using the siRNA fluorescent labeling reagent in accordance with the Mirus protocol. 5000 of the cells were seeded into a chambered slide glass in accordance with the ATCC protocol and incubated for overnight. After removing the medium, siRNA to a final concentration of 50 nM and peptide surfactant to a final concentration of 20 μg/ml were added to 1 ml of medium followed by culturing for 8 hours. In a control group, only siRNA was cultured at a final concentration of 50 nM in 1 ml of medium.
# [2] = Cytotoxicity, MTT cell proliferation assay (Cell Titer 96 Aqueous One Solution); type: cell-based; conditions: human, U87MG malignant glioma cells
# Experimental: Cytotoxicity was evaluated using cultured human cells for a peptide surfactant and two types of currently widely used cationic liposome-mediated gene transfer agents.
# <Materials> • *Added Substances • 1. Peptide surfactant (sequence: Ac-AAAAAAK-NH2(SEQ ID NO: 17), Celtek) • 2. Lipofectamine 2000 (Invitrogen) • 3. siFECTOR (B-Bridge International, Inc.) • *Cells • Cultured human malignant glioma cells (U87MG, acquired from ATCC) • *MTT Assay Reagent (for cell proliferation assay) • Cell Titer 96 Aqueous One Solution Cell Proliferation Assay Kit (Promega)
# The cells were seeded in a 96-well plate in accordance with the recommended ATCC protocol (cell density: 2×10^4/well) followed by incubating overnight. The medium was replaced with fresh medium and the substances were added (final concentrations: 0.0005, 0.001, 0.005, 0.01, 0.05, 0.1, 0.5, 1, 5, 10, 25, 50, 75, 100, 250 and 500 μg/ml). The cells were cultured for 24 hours. After culturing, Cell Titer 96 Aqueous One Solution was added (20 μl/well) followed by measuring optical absorbance at 495 nm with a plate reader 4 hours later to quantify the number of viable cells.
# [3] = system: cultured human malignant glioma cells (U87MG, T98G, U251MG); assay: Relationship between peptide surfactant concentration and siRNA introduction efficiency (RFU); type: cell-based
# Experimental: The manner in which the efficiency of introduction of siRNA into cells is dependent on concentration of peptide surfactant was examined by microscopic observation of fluorescent-labeled siRNA.
# as §1, with “(Celtek) • *Peptide surfactant concentrations: • 0, 0.5, 1.0, 5.0, 10.0, 20.0, 25.0 μg/ml” for “(Celtek)”, “U251MG,” for “U251MG, each”
# siRNA/MMP-2 was labeled with Cy3 using the siRNA fluorescent labeling reagent in accordance with the Minis standard protocol. The labeled siRNA was then mixed with the peptide surfactant. siRNA to a final concentration of 50 nM and peptide surfactant to final concentrations of 0, 0.5, 1, 5, 10, 20 and 25 μg/ml were administered to 1×10^5 cells seeded in a 24-well plate containing medium at 1 ml/well, followed by culturing for 8 hours. After washing the wells with PBS, the cells were recovered and transferred to a 96-well plate where they were measured for optical absorbance.
# [4] = system: cultured human malignant glioma cells (U87MG, T98G, U251MG); assay: Time-based changes in amount of siRNA introduced into cells (RFU); type: cell-based; conditions: siRNA 50 nM, peptide surfactant 20 μg/ml (FIG. 2)
# Experimental: Time-based changes in the amounts of siRNA introduced into cells by peptide surfactant were examined by microscopic observation of fluorescent-labeled siRNA.
# <Materials> • *Peptide surfactant • Sequence: Ac-AAAAAAK-NH2 (SEQ ID NO: 17) (Celtek) • *Peptide surfactant concentrations: • 0, 0.5, 1.0, 5.0, 10.0, 20.0, 25.0 μg/ml • *siRNA • siRNA/MMP-2 (Santa Cruz) • siRNA fluorescent labeling reagent • Label IT Cy-3 Labeling Kit (Mirus) • *Cells • Three types of cultured human malignant glioma cells (U87MG, T98G, U251MG, acquired from ATCC)
# siRNA/MMP-2 was labeled with Cy3 using the siRNA fluorescent labeling reagent in accordance with the Minis standard protocol. The labeled siRNA was then mixed with the peptide surfactant. siRNA to a final concentration of 50 nM and peptide surfactant to a final concentration of 20 μg/ml were administered to 1×10^5 cells seeded in a 24-well plate containing medium at 1 ml/well, followed by incubating for 0.5, 1, 2, 4, 8, 16 and 24 hours. After washing the wells with PBS, the cells were recovered and transferred to a 96-well plate where they were measured for optical absorbance.
substance,measurement,setting,value
"Ac-AAAAAAK-NH2 [peptide surfactant, Ac-AAAAAAK-NH2]",Expression of MMP-2 mRNA,MMP-2 mRNA,significantly inhibited
same,Uptake of Cy3-labeled siRNA,[1],confirmed
same,CC50 at 24 h,[2],286 µg/mL
same,RFU versus peptide surfactant concentration (introduction of siRNA into cells),"[3]; 0-25 μg/ml peptide surfactant, siRNA 50 nM, 8 hours, all three cell types (FIG. 3)",increases in RFU in proportion to increases in concentration
same,concentration at which dose-dependent increases in RFU weakened,"[3]; Y98G cells, siRNA 50 nM, 8 hours",≥ 10 µg/mL
same,introduction of siRNA into cells,[3]; peptide surfactant 20 μg/ml for 8 hours (with results of Example 3),adequately and significantly result in introduction of siRNA into cells
same,"relative fluorescence units (RFU), siRNA incorporated into cells",[4]; culturing for 1 to 8 hours,increased nearly proportionately
same,RFU levels,[4]; culturing for longer than 8 hours,essentially reached a plateau
